Measured values published in ChEMBL document CHEMBL3044801, “Synthesis and antiprotozoal activity of 1,2,3,4-tetrahydro-2-thioxopyrimidine analogs of combretastatin A-4” (Med Chem Res, 2011).
Active and inactive are the calls of the source. The calls are words filed in the database; no cut-off is given here.

Key:
Giardia intestinalis [1] = test: Antiprotozoan activity against Giardia intestinalis after 72 hr by MTT assay; format: functional, organism-based; settings: Giardia duodenalis
Trypanosoma lewisi = test: Antiprotozoan activity against Trypanosoma lewisi after 72 hr by MTT assay; format: functional, organism-based
Leishmania tarentolae = test: Antiprotozoan activity against Leishmania tarentolae after 72 hr by MTT assay; format: functional, organism-based
Plasmodium falciparum = test: Antiprotozoan activity against Plasmodium falciparum assessed as inhibition of [3H]hypoxanthine incorporation incubated for 24 hr prior to [3H]hypoxanthine addition measured after 18 hr by liquid scintillation counting; format: functional, organism-based
B16 = test: Cytotoxicity against Mus musculus (mouse) B16 cells after 72 hr by MTT assay; format: cell-based; settings: B16, 72 h
L1210 = test: Cytotoxicity against Mus musculus (mouse) L1210 cells after 72 hr by MTT assay; format: cell-based; settings: L1210, 72 h
[2] = Selectivity index, ratio of IC50 for mouse B16 cells to IC50 for Leishmania tarentolae; format: toxicity, cell-based; settings: B16 cells versus Leishmania tarentolae, read-out: Ratio IC50
[3] = Selectivity index, ratio of IC50 for mouse L1210 cells to IC50 for Giardia lamblia
[4] = Selectivity index, ratio of IC50 for mouse L1210 cells to IC50 for Leishmania tarentolae; format: toxicity, cell-based; settings: L1210 cells versus Leishmania tarentolae, read-out: Ratio IC50
[5] = Selectivity index, ratio of IC50 for mouse B16 cells to IC50 for Trypanosoma lewisi; format: toxicity, cell-based; settings: B16 cells versus Trypanosoma lewisi, read-out: Ratio IC50
[6] = Selectivity index, ratio of IC50 for mouse B16 cells to IC50 for Giardia lamblia
[7] = Selectivity index, ratio of IC50 for mouse L1210 cells to IC50 for Trypanosoma lewisi; format: toxicity, cell-based; settings: L1210 cells versus Trypanosoma lewisi, read-out: Ratio IC50
Giardia intestinalis [8] = test: Antiprotozoan activity against Giardia intestinalis assessed as decrease in viability at 12.1 to 21.5 uM after 72 hr by microscopic analysis; format: functional, organism-based; settings: Giardia duodenalis

Work on `COc1ccc(OC)c(C2=CC(c3ccc(OC)c([N+](=O)[O-])c3)NC(=S)N2)c1` (stereo not drawn) yielded an IC50 (Giardia intestinalis [1]) of 57.8 µM, an IC50 (Trypanosoma lewisi) of 33.3 µM and an IC50 (Leishmania tarentolae) of 21.1 µM.
For `COc1ccc(C2=CC(c3ccc(OC)cc3)NC(=S)N2)cc1` (stereo not drawn), the IC50 (Plasmodium falciparum) was 25 µM, the IC50 (Trypanosoma lewisi) was 15.2 µM and the IC50 (Leishmania tarentolae) was 17.8 µM. For the same compound, the IC50 (B16) was over 100 µM and the IC50 (L1210) was over 100 µM.
For `COc1cc(C2=CC(c3ccc([N+](=O)[O-])cc3)NC(=S)N2)cc(OC)c1OC` (stereo not drawn), the selectivity ratio [2] was 8, the “Ratio IC50” value [3] was 4 and the selectivity ratio [4] was 8. The IC50 (Giardia intestinalis [1]) was 21 µM, the IC50 (Trypanosoma lewisi) was 50 µM and the IC50 (Leishmania tarentolae) was 13.7 µM. For the same compound, the selectivity ratio [5] was 2, the “Ratio IC50” value [6] was 4 and the selectivity ratio [7] was 2.
For `COc1ccc(C2C=C(c3cc(OC)c(OC)c(OC)c3)NC(=S)N2)cc1[N+](=O)[O-]` (stereo not drawn), the selectivity ratio [2] was 8, the “Ratio IC50” value [3] was 4 and the selectivity ratio [4] was 8. The IC50 (Giardia intestinalis [1]) was 24.3 µM, the IC50 (Trypanosoma lewisi) was 39.5 µM and the IC50 (Leishmania tarentolae) was 12.5 µM. The selectivity ratio [5] was 2, the “Ratio IC50” value [6] was 4 and the selectivity ratio [7] was 2.
Compound `COc1ccc(C2C=C(c3cc(OC)c(OC)c(OC)c3)NC(=S)N2)cc1` (stereo not drawn) has an IC50 (Giardia intestinalis [1]) of 22.3 µM, an IC50 (Plasmodium falciparum) of 14.5 µM and an IC50 (Trypanosoma lewisi) of 17.9 µM. The IC50 (Leishmania tarentolae) was 12.5 µM, the IC50 (B16) was 36 µM and the IC50 (L1210) was 41 µM.
Work on `COc1cc(C2=CC(c3cc(OC)c(OC)c(OC)c3)NC(=S)N2)cc(OC)c1OC` (stereo not drawn) yielded an IC50 (Giardia intestinalis [1]) of 24.8 µM, an IC50 (Trypanosoma lewisi) of 29.3 µM and an IC50 (Leishmania tarentolae) of 46.6 µM.
For `COc1ccc(C2=CC(c3c(OC)cc(OC)cc3OC)NC(=S)N2)cc1` (stereo not drawn), the IC50 (Giardia intestinalis [1]) was over 100 µM, the IC50 (Plasmodium falciparum) was 14.6 µM and the IC50 (Trypanosoma lewisi) was 13.4 µM. For the same compound, the IC50 (Leishmania tarentolae) was 25.1 µM, the IC50 (B16) was 25 µM and the IC50 (L1210) was 85 µM.
In the case of `COc1ccc(C2=CC(c3ccc(OC)c(OC)c3)NC(S)=N2)cc1` (stereo not drawn), the IC50 (Giardia intestinalis [1]) is reported as over 100 µM, the IC50 (Plasmodium falciparum) is reported as 31 µM and the IC50 (Trypanosoma lewisi) is reported as 25.8 µM. The IC50 (Leishmania tarentolae) was 27.2 µM, the IC50 (B16) was over 100 µM and the IC50 (L1210) was over 100 µM.
For `COc1cccc(C2C=C(c3cc(OC)c(OC)c(OC)c3)NC(=S)N2)c1` (stereo not drawn), the IC50 (Giardia intestinalis [1]) was 40.4 µM, the IC50 (Trypanosoma lewisi) was 24.3 µM and the IC50 (Leishmania tarentolae) was 19.4 µM.
In the case of `COc1ccc(OC)c(C2C=C(c3cc(OC)c(OC)c(OC)c3)NC(=S)N2)c1` (stereo not drawn), the IC50 (Giardia intestinalis [1]) is reported as 23.5 µM, the IC50 (Trypanosoma lewisi) is reported as 48.4 µM and the IC50 (Leishmania tarentolae) is reported as 30.3 µM.
For `COc1ccc(OC)c(C2=CC(c3cc(OC)ccc3OC)NC(=S)N2)c1` (stereo not drawn), the IC50 (Giardia intestinalis [1]) was over 100 µM, the IC50 (Plasmodium falciparum) was 27.9 µM and the IC50 (Trypanosoma lewisi) was 27.3 µM. It also gave an IC50 (Leishmania tarentolae) of 18 µM, an IC50 (B16) of over 100 µM and an IC50 (L1210) of over 100 µM.
In the case of `COc1cc(C2=CC(c3ccc(Cl)cc3)NC(=S)N2)cc(OC)c1OC` (stereo not drawn), the IC50 (Giardia intestinalis [1]) is reported as 46.7 µM, the IC50 (Trypanosoma lewisi) is reported as 27 µM and the IC50 (Leishmania tarentolae) is reported as 10.2 µM.
Compound `COc1ccc(C2C=C(c3cc(OC)ccc3OC)NC(=S)N2)cc1` (stereo not drawn) has an IC50 (Giardia intestinalis [1]) of over 100 µM, an IC50 (Plasmodium falciparum) of 69.4 µM and an IC50 (Trypanosoma lewisi) of 16.5 µM. The IC50 (Leishmania tarentolae) was 11.4 µM, the IC50 (B16) was 80 µM and the IC50 (L1210) was 87 µM.
`COc1ccc(OC)c(C2=CC(c3cc(OC)c(OC)c(OC)c3)NC(=S)N2)c1` (stereo not drawn) gave an IC50 (Giardia intestinalis [1]) of over 100 µM, an IC50 (Plasmodium falciparum) of 13.3 µM and an IC50 (Trypanosoma lewisi) of 15.7 µM. It also gave an IC50 (Leishmania tarentolae) of 16.8 µM, an IC50 (B16) of 0.5 µM and an IC50 (L1210) of 6 µM.
With `COc1cc(OC)c(C2C=C(c3cc(OC)c(OC)c(OC)c3)NC(=S)N2)c(OC)c1` (stereo not drawn) the IC50 (Giardia intestinalis [1]) was 20.3 µM, the IC50 (Trypanosoma lewisi) was 29.6 µM and the IC50 (Leishmania tarentolae) was 46.6 µM.
With `COc1ccc(C2C=C(c3cc(OC)c(OC)c(OC)c3)NC(=S)N2)cc1OC` (stereo not drawn) the IC50 (Giardia intestinalis [1]) was 22.7 µM, the IC50 (Trypanosoma lewisi) was 52.1 µM and the IC50 (Leishmania tarentolae) was 36.4 µM.
With `COc1cc(OC)c(C2C=C(c3cc(OC)ccc3OC)NC(=S)N2)c(OC)c1` (stereo not drawn) the IC50 (Giardia intestinalis [1]) was 33.8 µM, the IC50 (Plasmodium falciparum) was 17.3 µM and the IC50 (Trypanosoma lewisi) was 25 µM. It also gave an IC50 (Leishmania tarentolae) of 10.4 µM.
For `COc1ccc(C2C=C(c3cc(OC)c(OC)c(OC)c3)NC(=S)N2)cc1O` (stereo not drawn), the Activity (Giardia intestinalis [8]) was “Active”, the IC50 (Giardia intestinalis [1]) was 21.5 µM and the IC50 (Trypanosoma lewisi) was 49.2 µM. The IC50 (Leishmania tarentolae) was 12.1 µM.
